# Test results as given in a melting point compilation (Tetko et al.).
row,Structure (SMILES),melting point
1,Brc1cccc(Br)c1,-7 °C
2,O=C(Nc1ccccc1)c1ccccc1I,137 °C
3,CN(C)c1cccc(N(C)C)c1C#N,71 to 73 °C
4,COc1ccccc1C1CCNCC1,54 to 55 °C
5,CCCCCC(=O)Cl,-87 °C
6,CN(C)S(=O)(=O)N(SC(F)(Cl)Cl)c1ccccc1,106 °C
7,Oc1ccc(C(F)(F)F)cn1,145 to 148 °C
8,CN(C)C(=O)COC(=O)c1ccccc1,81.5 °C
9,C=CC[C@H](N)C(=O)O,253 to 255 °C
10,CCc1ccnc(N)c1,67 °C
11,Nc1ccc2c(c1)COCO2,69 °C
12,CC(=O)OC1CC2(O)C(CCC3(C)C(c4ccc(=O)oc4)CCC32O)C2(C)CCC(OC3OC(CO)C(O)C(O)C3O)C=C12 (centres undefined),169 °C
13,O=Cc1ccc(Br)cc1F,61 °C
14,CCOC(=O)CCCCCC(=O)OCC,-24 °C
15,c1cc2c(cc1N1N=N1)OCO2,129 °C
16,Cc1cc(Cl)ccc1OCCCC(=O)O,100 °C
17,O=C(OCc1ccccc1)N1c2ccccc2CC1CO (centres undefined),67 to 71 °C
18,O=Cc1ccc(N2CCOCC2)c([N+](=O)[O-])c1,53 to 55 °C
19,COc1ccc(/N=N/c2c(N)nn3c(C)cc(=O)[nH]c23)cc1,276 °C
20,COc1ccc2nonc2c1,99 to 102 °C
21,O=C1c2ccc(C=NO)cc2C(=O)c2c(Cl)c(Cl)c(Cl)c(Cl)c21,234 to 235 °C
22,O=C1C(=C2c3ccccc3C(=O)C2c2cc(Cl)c([N+](=O)[O-])cc2[N+](=O)[O-])C(=O)c2ccccc21 (centres undefined),218 °C

# Results, then the compound that gave them:
row,melting point,Structure (SMILES)
1,182 °C,CC1(C)SC2C(NC(=O)C3(N)CCCCC3)C(=O)N2C1C(=O)O (centres undefined)
2,118 °C,Cc1cc(Cl)[nH]n1
3,149 to 150 °C,CC(C)(C)OC(=O)n1cc(C(=O)O)c2c(Br)cccc21
4,256 to 257 °C,O=c1c2ccccc2[nH]c(=S)n1Cc1ccccc1
5,186 °C,CCCOC(=O)Cn1cc(I)c(=O)c(I)c1
6,96 to 100 °C,CCCC(=O)Oc1c[nH]c2cc(Cl)c(Br)cc12
7,101 to 104 °C,O=Cc1ccc(-c2ccncc2)cc1
8,239 °C,c1ccc(-c2ccc(-c3cnc(-c4ccc(-c5ccccc5)cc4)o3)cc2)cc1
9,218 to 220 °C,Clc1ccc(Nc2ncnc3c2cnn3-c2ccccc2)cc1
10,-36.7 °C,CCCCCCCCC(=O)OCC
11,138 to 140 °C,O=c1c(Cl)c(SCc2ccccc2)cnn1-c1ccccc1
12,259 to 260 °C,CCOc1cc2c(cc1OCC)C(CC(=O)O)NCC2 (centres undefined)
13,131 °C,N#CCCN1C(=O)COc2ccc(Cl)cc21
14,177 °C,Cc1c2cccc(-c3ccccc3)c2cc2c(-c3ccccc3)cccc12
15,185 °C,N=c1sc(C(=O)c2cccs2)nn1-c1cccc(C(F)(F)F)c1
16,178 °C,CC1=C(C(=O)OCC(C)C)C(c2ccc3c(c2)OCO3)NC(=O)N1 (centres undefined)
17,30 °C,O=S(=O)(Cl)c1ccc(F)cc1Cl
18,110 to 112 °C,CCOC(=O)c1c(C)oc(NC(=O)Nc2ccccc2)c1C(=O)OCC
19,120 to 122 °C,Cc1nc(-c2ccc(C(=O)Cl)cc2)cs1
20,140 °C,COc1ccc(C=C(S)C(=O)O)cc1
21,112 to 115 °C,O=C(CBr)c1ccc(N2CCOCC2)cc1
22,181 °C,CCOC(=O)c1c(SC)nn(-c2ccc([N+](=O)[O-])cc2)c1N
23,102 to 107 °C,CC(=O)NC1C(OCc2ccccc2)OC(COC(c2ccccc2)(c2ccccc2)c2ccccc2)C(O)C1O (centres undefined)
24,161 °C,Nc1cc(N)c(/C=C/c2ccccc2)c(N)c1C=Cc1ccccc1
25,256 to 260 °C,O=C(O)C1Cc2cc(O)ccc2CN1 (racemic)
26,140 to 142 °C,O=C(Cl)c1cc(Cl)nc2ccc(Br)cc12
27,87 °C,Cc1ccnc(C#N)c1
